Results reported in patent US12129237B2, “Substituted diaminocarboxamide and diaminocarbonitrile pyrimidines, compositions thereof, and methods of treatment therewith” (SIGNAL PHARMACEUTICALS, LLC, priority 2011, dated 2024).

target: T1, JNK1 (Homo sapiens, UniProt P45983); assay: JNK1 biochemical assays (one or more of: time resolved fluorescence, Z'-LYTE Cascade, radioactive); conditions: Table 2; JNK1 IC50 activity level; read-out: Act. Level
T1 construct: purchased Carna Biosciences
T1 sequence (P45983 whole entry): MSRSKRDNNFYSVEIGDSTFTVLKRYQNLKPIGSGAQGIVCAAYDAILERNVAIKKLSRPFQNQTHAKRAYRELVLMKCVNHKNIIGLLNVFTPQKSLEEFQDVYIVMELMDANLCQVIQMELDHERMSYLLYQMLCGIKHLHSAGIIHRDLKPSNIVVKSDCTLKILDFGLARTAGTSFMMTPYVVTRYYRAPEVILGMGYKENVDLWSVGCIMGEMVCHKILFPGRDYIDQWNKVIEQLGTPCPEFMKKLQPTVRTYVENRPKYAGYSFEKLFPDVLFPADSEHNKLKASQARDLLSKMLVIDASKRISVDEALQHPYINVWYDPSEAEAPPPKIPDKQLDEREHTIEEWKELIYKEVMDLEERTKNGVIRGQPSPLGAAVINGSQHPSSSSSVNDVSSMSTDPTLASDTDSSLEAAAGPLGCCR
Protocol: JNK1 Assay. A 384-well time resolved fluorescence assay was used to monitor JNK1 activity. The JNK1 assay was run in the following assay buffer: 50 mM HEPES, 10 mM MgCl2, 1 mM EGTA, 2 mM DTT, and 0.01% Tween 20. To initiate the reaction 100 nM of ULight™-labeled 4EBP1 peptide (Perkin-Elmer) and 5 μM of ATP were mixed with 500 pM of JNK1 (Carna Biosciences), for a total assay volume of 20 μL in each well. The assay was incubated at room temperature for 1 h and terminated using a mixture of 30 mM EDTA and 4 nM Eu-anti-4EBP1, by adding 20 μL of stop solution to each well. Plates were read on a Perkin-Elmer Envision Reader.
JNK1 Assay. The JNK1 Z′-LYTE® Cascade kinase assay was run in the following buffer: 50 mM HEPES at pH 7.5, 0.01% BRIJ-35, 10 mM MgCl2, 1 mM EGTA, and 1 mM DTT. […] The assay was incubated at room temperature for 1 h. […] The data was then read on a fluorescence plate reader and analyzed.
JNK1 assay. The radioactive JNK kinase assay was carried out in a 96-well plate format at a final volume of 100 μL. […] JNK1 was diluted in the following dilution buffer (20 mM HEPES pH 7.6, 0.1 mM EDTA, 2.5 mM MgCl2, 0.004% (w/v) Triton X100, 2 μg/ml Leupeptin, 20 mM B-glycerol phosphate, 0.1 mM Na3VO4 dithiothreitol) and then pre-mixed with cJun diluted in the substrate solution buffer (20 mM HEPES pH 7.6, 50 mM NaCl, 0.1 mM EDTA, 2.5 mM MgCl2, 0.05% (w/v) Triton X100). […] The enzyme, substrate and inhibitor mixture was allowed to equilibrate at room temperature for 15 minutes. The reaction was started by the addition of 10 μL of 10×ATP in kinase buffer (130 mM MgCl2, 6 mM dithiothreitol, 150 mM para-nitrophenyl phosphate, 100 μCi/ml γ-[^33P]-ATP). Reactions were allowed to proceed for 60 minutes before precipitation of protein via trichloroacetic acid (7.2% TCA final). […] The precipitate was washed with Phosphate Buffered Saline and the amount of phosphate incorporated into cJun was quantified by scintillation counting using a Packard Topcount-NXT. All assays were conducted under conditions where phosphate incorporation was linear with respect to time and enzyme concentration.

IC50 [nM] | Structure (SMILES)
< 200 | NC(=O)c1cnc(N[C@H]2CCc3cnccc3C2)nc1N[C@@H]1CCC[C@H](O)C1 [Example B-95, 4-((1R,3S)-3-hydroxycyclohexylamino)-2-((S)-5,6,7,8-tetrahydroisoquinolin-6-ylamino)pyrimidine-5-carboxamide]
< 200 | CCC(C)CNc1ncc(C(N)=O)c(Nc2ccccc2)n1 (stereo not drawn) [Example B-59, 2-(2-methylbutylamino)-4-(phenylamino)pyrimidine-5-carboxamide]
1000 to 10000 | C[C@H](Nc1ncc(C(N)=O)c(N[C@@H]2CCC[C@H](O)C2)n1)c1ccc(F)cc1 [Example B-90, 2-((S)-1-(4-fluorophenyl)ethylamino)-4-((1R,3S)-3-hydroxycyclohexylamino)pyrimidine-5-carboxamide]

same assay, conditions: Table 3; JNK1 IC50 activity level; read-out: Act. Level

IC50 [nM] | Structure (SMILES)
< 200 | CCO[C@H]1CC[C@H](Nc2ncc(C#N)c(N[C@@H]3CCC[C@H](O)C3)n2)CC1 [Example C-2, 2-((1r,4R)-4-ethoxycyclohexylamino)-4-((1R,3S)-3-hydroxycyclohexylamino) pyrimidine-5-carbonitrile]
< 200 | N#Cc1cnc(N[C@H]2CC[C@H](OCC(F)(F)F)CC2)nc1N[C@@H]1CCC[C@H](O)C1 [Example C-14, 4-((1R,3S)-3-hydroxycyclohexylamino)-2-((1r,4R)-4-(2,2,2-trifluoroethoxy)cyclohexylamino) pyrimidine-5-carbonitril]

same assay, conditions: one or more of the JNK1 biochemical assays; read-out: Act. Level (JNK1 IC50 activity level)

IC50 [nM] | Structure (SMILES)
< 200 | CC(C)(C)C12CC(Nc3nc(N[C@H]4CC[C@H](O)CC4)ncc3C(N)=O)(C1)C2 [Example 493, 4-(3-tert-butylbicyclo[1.1.1]pentan-1-ylamino)-2-((1r,4r)-4-hydroxycyclohexylamino)pyrimidine-5-carboxamide]
< 200 | CC(C)(C)Nc1nc(N[C@H]2CC[C@H](OCC(F)(F)F)CC2)ncc1C(N)=O [Example 212, 4-(tert-butylamino)-2-((1r,4r)-4-(2,2,2-trifluoroethoxy)cyclohexylamino)pyrimidine-5-carboxamide]
< 200 | NC(=O)c1cnc(N[C@H]2CC[C@H](O)CC2)nc1NCCC1CCC1 [Example 219, 4-(2-cyclobutylethylamino)-2-((1r,4r)-4-hydroxycyclohexylamino)pyrimidine-5-carboxamide]
< 200 | CCC1(Nc2nc(N[C@H]3CC[C@H](OC)CC3)ncc2C(N)=O)CCCC1 [Example 454, 4-(1-ethylcyclopentylamino)-2-((1r,4r)-4-methoxycyclohexylamino)pyrimidine-5-carboxamide]
< 200 | CC1CCC1Nc1nc(N[C@H]2CC[C@H](OCC(F)(F)F)CC2)ncc1C(N)=O (stereo partly drawn) [Example 256, 4-(2-methylcyclobutylamino)-2-((1r,4r)-4-(2,2,2-trifluoroethoxy)cyclohexylamino)pyrimidine-5-carboxamide]
< 200 | CC(C)[C@@H](C)Nc1ncc(C(N)=O)c(N[C@@H]2CC[C@@H](C)[C@H](O)C2)n1 [Example 470, 4-((1R,3R,4R)-3-hydroxy-4-methylcyclohexylamino)-2-((R)-3-methylbutan-2-ylamino)pyrimidine-5-carboxamide]
< 200 | CC(C)(C)Nc1ncc(C(N)=O)c(N[C@@H]2CCC[C@@H]2CO)n1 [Example 365, 2-(tert-butylamino)-4-((1R,2S)-2-(hydroxymethyl)cyclopentylamino)pyrimidine-5-carboxamide]
< 200 | CC[C@H](Nc1nc(N[C@H]2CC[C@H](OC)CC2)ncc1C(N)=O)C1CC1 [Example 372, 4-((S)-1-cyclopropylpropylamino)-2-((1r,4S)-4-methoxycyclohexylamino)pyrimidine-5-carboxamide]

same assay, conditions: tested in one or more of the JNK1 biochemical assays; read-out: Act. Level (JNK1 biochemical assay IC50 activity level)

IC50 [nM] | Structure (SMILES)
< 200 | C[C@@H]1CC[C@@H](Nc2nc(N[C@H]3CC[C@H](OC(F)F)CC3)ncc2C(N)=O)C[C@H]1O [Example A-173, 2-((1r,4R)-4-(difluoromethoxy)cyclohexylamino)-4-((1R,3R,4R)-3-hydroxy-4-methylcyclohexylamino)pyrimidine-5-carboxamide]
< 200 | CC(C)Nc1nc(N[C@H]2CC[C@H](C(=O)N(C)C)CC2)ncc1C(N)=O [Example A-10, 2-((1r,4r)-4-(dimethylcarbamoyl)cyclohexylamino)-4-(isopropylamino)pyrimidine-5-carboxamide]
